Assay results as given in PubChem BioAssay (NCI).
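48-hour exposure; five concentrations; linearly interpolated endpoints. GI50 marks 50% less growth. TGI denotes the concentration required for complete inhibition of growth.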

What was measured:
Experiment in all cases: NCI tumour cell line growth inhibition, 48 h
EKVX NSCLC = system: EKVX NSCLC
HT29 colon = system: HT29 colon
K-562 leukemia = system: K-562 leukemia
LOX IMVI melanoma = system: LOX IMVI melanoma
MOLT-4 leukemia = system: MOLT-4 leukemia
NCI-H226 lung = system: NCI-H226 lung
SF-268 CNS = system: SF-268 CNS
SF-295 CNS = system: SF-295 CNS
SR leukemia = system: SR leukemia
HS 578T breast = system: HS 578T breast

Structure (SMILES) | TGI (EKVX NSCLC) [µM] | TGI (HT29 colon) [µM] | TGI (K-562 leukemia) [µM] | TGI (LOX IMVI melanoma) [µM] | TGI (MOLT-4 leukemia) [µM] | TGI (NCI-H226 lung) [µM] | TGI (SF-268 CNS) [µM] | TGI (SF-295 CNS) [µM] | TGI (SR leukemia) [µM] | GI50 (EKVX NSCLC) [µM] | GI50 (HT29 colon) [µM] | GI50 (K-562 leukemia) [µM] | GI50 (LOX IMVI melanoma) [µM] | GI50 (MOLT-4 leukemia) [µM] | GI50 (NCI-H226 lung) [µM] | GI50 (SF-268 CNS) [µM] | GI50 (SF-295 CNS) [µM] | GI50 (SR leukemia) [µM] | GI50 (HS 578T breast) [µM] | TGI (HS 578T breast) [µM]
COc1nc2c(c(O)c(C)c(=O)n2OC2OC(COC(C)=O)C(OC(C)=O)C(OC(C)=O)C2OC(C)=O)c(=O)n1C (stereo not drawn) | > 100 | > 100 | > 100 | > 100 | > 100 | > 100 | > 100 | > 100 | > 100 | – | – | – | – | – | – | – | – | – | – | –
CC[P+]1(CC)CCCC1 | > 100 | > 100 | > 100 | > 100 | > 100 | – | > 100 | > 100 | – | – | – | – | – | – | – | – | – | – | – | –
COc1ccc(C2ONC3=NCCN32)cc1 (stereo not drawn) | > 100 | > 100 | > 100 | 47.1 | > 100 | > 100 | > 100 | > 100 | – | > 100 | 68.8 | 38.3 | 14.4 | 37.1 | 61.4 | 70.5 | 93.4 | – | – | –
CC1=C(C(=O)CC(=O)C(=O)NC2C3CC4CC(C3)CC2C4)Sc2ccccc2N1 (stereo not drawn) | > 100 | > 100 | > 100 | > 100 | – | – | > 100 | > 100 | – | – | – | – | – | – | – | – | – | – | – | –
C[C@@]12CCCC(=O)N1[C@@H](CO)C(c1ccccc1)O2 (stereo partly drawn) | > 100 | > 100 | > 100 | > 100 | – | – | > 100 | > 100 | – | – | – | – | – | – | – | – | – | – | – | –
Cc1nnc(N=Nc2c(O)[nH]c3ccccc23)n1N | > 100 | > 100 | > 100 | > 100 | > 100 | > 100 | > 100 | > 100 | > 100 | – | – | – | – | – | – | – | – | – | – | –
NC(=O)c1c[se]c(C2OC(COP(=O)(O)CP(=O)(O)OCC3OC(n4cnc5c(N)ncnc54)C(O)C3O)C(O)C2O)n1 (stereo not drawn) | > 100 | > 100 | > 100 | – | > 100 | > 100 | > 100 | > 100 | > 100 | – | – | – | – | – | – | – | – | – | – | –
COC(=O)c1cc2c3c(ccc2[nH]1)N(C(=O)c1cc2c4c(ccc2[nH]1)N(C(=O)c1cc2c5c(ccc2[nH]1)N(C(N)=O)CC5)CC4)CC3 | > 100 | > 100 | > 100 | > 34 | > 100 | 5.76 | > 100 | 44 | > 100 | – | – | – | – | – | – | – | – | – | – | –
COc1ccc(C2NCCc3c2[nH]c2ccccc32)cc1 (stereo not drawn) | > 100 | > 100 | > 100 | > 100 | > 100 | > 100 | > 100 | > 100 | 91.5 | – | – | – | – | – | – | – | – | – | – | –
COc1ccccc1/C=C\C(=O)c1ccccc1 | 18.3 | 17.3 | 13.9 | 8.79 | 10.2 | 29.8 | 27 | 14 | 18 | 3.82 | 3.9 | 2.57 | 2.93 | 2.9 | 14.5 | 13.1 | 3.27 | 2.77 | – | –
O=C1C(c2ccccc2)=C(c2ccccc2)[C@H](c2ccccc2)[C@]1(Cc1nnn(-c2ccc([N+](=O)[O-])cc2)c1N1CCOCC1)c1ccccc1 | > 37.5 | > 37.5 | > 37.5 | > 37.5 | > 37.5 | – | – | > 37.5 | – | – | – | – | – | – | – | – | – | – | – | –
COc1ccc(CC2=NCCc3cc(OC)c(OC)cc32)cc1Br | > 100 | > 100 | 93.2 | 30.3 | 58.6 | 50.9 | > 100 | 30.4 | 91.1 | – | – | – | – | – | – | – | – | – | – | –
CC(=O)[CH-]C(=O)c1ccccc1.CC(=O)[CH-]C(=O)c1ccccc1.[CH2-]CCC.[CH2-]CCC.[Sn+4] | 3.25 | 3.39 | 10.3 | 2.47 | 1.86 | 2.28 | 3.39 | 2.87 | – | 1.41 | 1.73 | 0.331 | 1.06 | 0.421 | 0.526 | 1.19 | 1.51 | – | – | –
COC(=O)C1(F)C(=O)NC(=O)NC1OC (stereo not drawn) | – | > 100 | > 100 | > 100 | > 100 | > 100 | > 100 | > 100 | > 100 | – | – | – | – | – | – | – | – | – | – | –
CCN(CC)CCOc1ccc(/C=C2\CC3C4CC=C5C[C@@H](OC(C)=O)CC[C@]5(C)C4CC[C@]3(C)C2=O)cc1OC (stereo partly drawn) | 36.3 | > 100 | 23.6 | – | > 100 | 35.9 | 18.4 | 3.94 | – | 16.7 | 4.07 | 1.29 | – | 1.45 | 13.3 | 4.14 | 2.02 | – | 7.77 | 25.7
CCCCCCCCCC(=O)Oc1cccc2onc(C)c12 | > 100 | > 100 | > 100 | > 100 | > 100 | > 100 | > 100 | > 100 | > 100 | – | – | – | – | – | – | – | – | – | – | –

Structure (SMILES) | TGI (EKVX NSCLC) [µM] | TGI (HT29 colon) [µM] | TGI (K-562 leukemia) [µM] | TGI (LOX IMVI melanoma) [µM] | TGI (MOLT-4 leukemia) [µM] | TGI (NCI-H226 lung) [µM] | TGI (SF-268 CNS) [µM] | TGI (SF-295 CNS) [µM] | TGI (SR leukemia) [µM] | GI50 (EKVX NSCLC) [µM] | GI50 (HT29 colon) [µM] | GI50 (K-562 leukemia) [µM] | GI50 (LOX IMVI melanoma) [µM] | GI50 (MOLT-4 leukemia) [µM] | GI50 (NCI-H226 lung) [µM] | GI50 (SF-268 CNS) [µM] | GI50 (SF-295 CNS) [µM] | GI50 (SR leukemia) [µM] | GI50 (HS 578T breast) [µM] | TGI (HS 578T breast) [µM]
C=C(CNCCc1ccc(O)cc1)[C@@H]1CC[C@]2(CO)CC[C@]3(C)[C@H](CC[C@@H]4[C@@]5(C)CCC(N)C(C)(C)[C@@H]5CC[C@]43C)[C@@H]12 (stereo partly drawn) | 3.36 | 1.81 | – | – | – | 3.78 | 3.03 | 3.3 | – | 1.66 | 0.46 | – | – | – | 1.83 | 1.52 | 1.73 | – | – | –
O=[N+]([O-])C1C2C=CC(C2)[C@H]1c1ccc(Cl)cc1Cl (stereo partly drawn) | – | 57.4 | > 100 | > 100 | > 100 | > 100 | > 100 | > 100 | > 100 | – | – | – | – | – | – | – | – | – | – | –
NS(=O)(=O)c1ccc(NC(=O)c2cccn3c(=O)c4ccccc4nc23)cc1 | > 100 | > 100 | > 100 | > 100 | > 100 | > 100 | > 100 | > 100 | > 100 | – | – | – | – | – | – | – | – | – | – | –
COc1cc2cccc(N=Cc3c(Br)ccc(OC)c3OC(C)C)c2cc1OC | > 100 | 93.7 | 92.9 | – | > 100 | – | > 100 | > 100 | – | – | – | – | – | – | – | – | – | – | – | –
CC(=O)OCCC(O[Si](c1ccccc1)(c1ccccc1)C(C)(C)C)C(C)(C)O (stereo not drawn) | > 100 | 66.9 | > 100 | 57.8 | 63 | 36 | > 100 | 45.6 | – | – | – | – | – | – | – | – | – | – | – | –
C=CC1=CC(C)C[C@]1(O)C(=O)OC (stereo partly drawn) | – | – | – | – | – | – | – | – | > 100 | > 100 | > 100 | > 100 | > 100 | > 100 | > 100 | > 100 | > 100 | – | – | –
Cc1ccccc1NC(=O)C(=O)CC(=O)c1ccc([N+](=O)[O-])cc1 | > 100 | > 100 | – | > 100 | – | > 100 | > 100 | > 100 | – | – | – | – | – | – | – | – | – | – | – | –
C/C(=N/NC(=O)CC(=O)N(C(=O)c1ccccc1Cl)c1ccc(C)cc1)c1cc2ccccc2oc1=O | > 100 | > 100 | > 100 | > 100 | – | > 100 | > 100 | > 100 | > 100 | – | – | – | – | – | – | – | – | – | – | –
CC12OC(C(=O)C13CCC3)C1C(=O)c3ccccc3C(=O)C12 (stereo not drawn) | > 100 | > 100 | > 100 | – | > 100 | > 100 | > 100 | – | – | > 100 | > 100 | 58.1 | – | 37.6 | 38.4 | > 100 | – | – | > 100 | > 100
O=C(O)[C@@H]1CCCC[C@@H]1C(=O)N(C1CCCCC1)C1CCCCC1 | > 100 | > 100 | > 100 | > 100 | > 100 | > 100 | > 100 | > 100 | > 100 | – | – | – | – | – | – | – | – | – | – | –
C/C(=N/O)c1ccc2c(c1)C(=NO)c1cc(/C(C)=N/O)ccc1-2 | 41.7 | 30 | > 100 | 26.7 | 13.2 | 26.8 | 28.3 | 29.1 | > 100 | – | – | – | – | – | – | – | – | – | – | –
NC(N)=N/N=C/c1c(-c2ccc(Cl)c([N+](=O)[O-])c2)nc2n1CCS2 | 26.3 | 30.9 | 16.6 | 7.09 | 36 | 24 | 40 | 20.8 | – | 12.7 | 6.13 | 3.96 | 2.43 | 3.4 | 4.24 | 16.1 | 7 | – | – | –
CC(C)(C)c1cc(CCC(=O)Nc2ccc(Cl)cc2Cl)nc(N)n1 | > 100 | > 100 | > 100 | > 100 | > 100 | > 100 | > 100 | > 100 | > 100 | – | – | – | – | – | – | – | – | – | – | –
COc1ccc2[nH]c3c(=O)[nH]ncc3c2c1 | > 100 | > 100 | > 100 | > 100 | > 100 | > 100 | > 100 | > 100 | > 100 | – | – | – | – | – | – | – | – | – | – | –
CCOC(=O)C[C@@]12CCCNC1(C)CCc1ccccc12 (stereo partly drawn) | > 100 | > 100 | > 100 | > 100 | > 100 | > 100 | – | > 100 | – | – | – | – | – | – | – | – | – | – | – | –
